Data from patent publication US20160287553A1, “TRANSLATION INHIBITORS IN HIGH-DOSE CHEMO- AND/OR HIGH-DOSE RADIOTHERAPY” (DEUTSCHES KREBSFORSCHUNGSZENTRUM, priority 2013, published 2016).
“Also recorded” adds a separate entry of the source.

Legend:
Peripheral blood T cells = assay: Etoposide-induced apoptotic cell death of T cells (DNA fragmentation, AnnexinV, FSC/SSC)
Description: The human malignant cell lines EU-3 (acute lymphoblastic leukemia), DND-41 (T cell leukemia), Hut-78 (T cell lymphoma), SKW6.4 (B cell leukemia), Reh (acute lymphoblastic leukemia), IM-9 (Chronic myeloid leukemia), HL-60 (promyelocytic leukemia), L1236 (Hodgkin's lymphoma) and NCI-H209 (small cell lung cancer) were cultured at 37° C. with 5% CO2 in RPMI-1640 medium (Sigma-Aldrich, Munich, Germany) supplemented with 10% FCS, 100 U/ml Penicillin (Sigma-Aldrich, Munich, Germany) and 100 μg/ml Streptamycin (Sigma-Aldrich, Munich, Germany) SCLC-21H cells (small cell lung cancer) were cultured in DMEM medium (Sigma-Aldrich, Munich, Germany) supplemented with 10% FCS. Peripheral blood T lymphocytes were isolated as previously described (Klas et al., Int Immunol. 1993; 5: 625-630). B lymphocytes and NK cells were isolated by magnetic activated cell sorting using “B cell isolation kit II” (Miltenyi Biotech, Bergisch Gladbach, Germany) and “NK cell isolation kit, human” (Miltenyi Biotech, Bergisch Gladbach, Germany), respectively, according to the manufacturer's instructions. Human neutrophils were separated from peripheral blood mononuclear cells by Ficoll-Paque density centrifugation, followed by incubation in 1.05% dextran for 30 min at room temperature. Remaining erythrocytes were lysed by resuspension in ice-cold 0.2% sodium chloride solution. After 1 min ice-cold 1.6% sodium-chloride solution was added and lysis was stopped by addition of PBS and neutrophils were resuspended in medium at a concentration of 2×10^6 cells/ml. Human primary cardiomyocytes were purchased from PromoCell (Heidelberg, Germany) and cultured in Myocyte Growth Medium (PromoCell, Heidelberg, Germany). Remaining primary human cells were cultured in RPMI-1640 medium with the same conditions described above.
Apoptotic cell death was determined by AnnexinV staining, cellular forward scatter/side scatter (FSC/SSC) profile, or DNA fragmentation. For AnnexinV staining, 2×10^5 cells were treated with different drugs for indicated time periods, washed with AnnexinV binding buffer (0.01 M Hepes, 0.14 M NaCl, 2.5 mM CaCl2), and stained with AnnexinV-FITC antibody (Immunotools, Friesoythe, Germany) and 7-amino-actinomycin D (Sigma-Aldrich, Munich, Germany) for 30 min at 4° C. The amount of AnnexinV positive cells was determined by FACS measurement. DNA fragmentation was determined according to the method of Nicoletti (Nicoletti et al., J Immunol Methods. 1991; 139: 271-279). Briefly, 2×10^5 cells were treated as indicated, washed with PBS and lysed in Nicoletti buffer (0.1% sodium citrate, 0.1% Triton X-100, 50 μg/ml propidium iodide). DNA fragmentation was determined by FACS. Apoptosis-like cells were determined by forward scatter and side scatter (FSC/SSC) index. Specific DNA fragmentation/specific AnnexinV positive cells/specific apoptosis was calculated as follows: (percentage of experimental DNA fragmentation (or Annexin V positive cells or apoptosis)−percentage of spontaneous DNA fragmentation (or Annexin V positive cells or apoptosis)/(100−percentage of spontaneous DNA fragmentation (or Annexin V positive cells or apoptosis))×100.

[1] = tested on: HL-60 (promyelocytic leukemia), p53-deficient; assay: Etoposide-induced cell death in HL-60; type: cell-based, human; conditions: HL-60 (FIG. 5a)
Description: (§1) DNA fragmentation was determined by FACS.
Since Roc-A-mediated protection of non-malignant cells from DNA-damage-induced cell death is largely p53-dependent, we predicted that Roc-A would not protect cancer cells which have non-functional p53. […] 1997; 19: 243-253), Reh (Zhou et al, loc cit.), SKW6.4 (Barbarotto et al., J Cell Biochem. 2008; 104: 595-605) and NCI-H209 (Fujita et al. Int J Oncol. 1999; 15: 927-934) which have a WT p53 protein.

non-malignant cells = assay: Fold change in cell death on raising the Etoposide dose, non-malignant cells (FIG. 9a-b); type: cell-based; conditions: 75 nM Roc-A in parallel to Etoposide, 6.25 μM to 50 μM, 24 h
Description: (a) Cells from (b) were grouped into malignant and non-malignant cells. Shown are means of three independent experiments. Abbreviations; HSPCs=hematopoietic stem and progenitor cells. (c-d) Malignant and non-malignant cells were exposed to ionizing radiation (IR) in the presence of 75 nM Roc-A or solvent (DMSO) and cell death was determined after 24 h by DNA fragmentation. Depicted is the fold-change in cell death that was measured when doses of IR were increased from 2 Gy to 10 Gy. (c) Cells from (d) were grouped into malignant and non-malignant cells. Shown are means of three independent experiments.
as §1
Roc-A specifically prevents the cause of chemotherapeutic and radiation-induced side-effects, i.e., the death of healthy cells. […] Consequently, high-dose therapy is not possible, as side effects would be too high.

γ-H2AX = type: cell-based; conditions: Roc-A 75 nM, T cells (FIG. 2a-b)
Description: DNA damage was determined by quantification of γ-H2AX foci formation and by alkaline single-cell gel electrophoresis assay (comet assay). For γ-H2AX staining, cells were treated as indicated, fixed in 3% formaldehyde and permeabilized in 90% methanol. Following storage at −20° C. overnight, cells were incubated with mouse serum to block unspecific binding and stained with antibody directed against γ-H2AX (AlexaFluor 488-coupled, 2F3 [BioLegend, Fell, Germany]), or with isotype control antibody (AlexaFluor 488-coupled [BioLegend, Fell, Germany]). The amount of γ-H2AX foci formation was determined by FACS measurement. […] Nuclei were stained with DAPI mounting medium (Dianova, Hamburg, Germany). Comet assays were carried out as previously described (Greve et al., PloS one. 2012; 7: e47185). Briefly, electrophoresis of cellular genomic DNA was performed under alkaline conditions at 4° C. The amount of DNA damage was measured by “Olive Tail Moment”. Analysis of cellular DNA damage was carried out by fluorescence microscopy, using a fully automated cell scanning system Metafer-4 (Metasystems, Altlutβheim, Germany).
To address this question, we determined the level of the DNA-damage marker γ-H2AX, which is generated around the site of a DNA double-strand break (Rogakou et al., J Biol Chem. 1998; 273: 5858-5868).

Primary human T cells = assay: Ionizing radiation (IR)-induced apoptosis in T cells; type: cell-based
Description: as §1
The radioprotective effect mediated by Roc-A was the highest when cells were treated with Roc-A 1 h before radiation of cells (FIG. 1d). However, when cells were treated 4 h after radiation, the radioprotective effect was still higher than 50% (FIG. 1d).

[2] = tested on: Splenocytes from p53-/- mice; assay: Etoposide-induced cell death in p53 knock-out splenocytes; type: cell-based, mouse; conditions: p53-KO splenocytes, 50 μM Etoposide, 75 nM Roc-A (FIG. 4b)
Description: as §1
P53^−/− C57B1/6 mice (B6.Trp53tm1Tyj) were kindly provided by Liu H-K (German Cancer Research Center, Heidelberg, Germany). Spleens of 8-12 week old p53^−/−, and p53^+/+ mice were isolated in parallel, minced and incubated for 30 min in RPMI-1640 medium supplemented with DNase I (50 U/ml) and Collagenase IV (1 mg/ml) at 37° C. and 5% CO2. Splenocytes were filtered by […] cell strainer, washed twice with ice-cold wash buffer (PBS, 0.5% FCS, 2 mM EDTA) and resuspended in Oxford medium (RPMI 1640, 10% FCS, 100 μg/ml Penicillin, 100 μg/ml Streptamycin, 10 mM Hepes, 50 μM β-Mercaptoethanol, 2 mM L-glutamine, 1 mM sodium pyruvate, 100 μM non-essential amino acids) at a concentration of 2×10^6 cells/ml.
To further investigate the role of p53 in Roc-A-mediated protection of T cells against DNA damage-induced apoptosis, we performed a p53 knock-down experiment using a siRNA approach (FIG. 4a, upper panel). […] Therefore, we examined the effect of Roc-A on p53 knock-out (KO) cells.

COc1ccc([C@@]23Oc4cc(OC)cc(OC)c4[C@]2(O)[C@H](O)[C@H](C(=O)N(C)C)[C@H]3c2ccccc2)cc1 [Roc-A, (1R,2R,3S,3aR,8bS)-1,8b-dihydroxy-6,8-dimethoxy-3a-(4-methoxyphenyl)-N,N-dimethyl-3-phenyl-2,3-dihydro-1H-cyclopenta[b][1]benzofuran-2-carboxamide]
Protection of normal T cells from Etoposide-induced cell death by Roc-derivatives (Peripheral blood T cells; 50 μM Etoposide, 75 nM Roc-derivative, 24 h (FIG. 6b)): different levels of protection
Toxicity of Etoposide, kinetic analysis (Peripheral blood T cells; 50 μM Etoposide, different concentrations of Roc-A, indicated time-periods (FIG. 1a middle)): could reduce the toxicity of Etoposide at all measured time points
Reduction of Etoposide-induced cell death of normal T cells (Peripheral blood T cells; 24 h, increasing concentrations of Etoposide, different concentrations of Roc-A, dose-dependent (FIG. 1a left, FIG. 7)): more than 50%
Chemo-protective effect when Roc-A is administered after Etoposide (Peripheral blood T cells; Roc-A added 2 and 4.5 h after Etoposide (50 μM) (FIG. 1a right)): chemo-protective effect could be even seen
Protection of T cells from Etoposide-induced apoptotic cell death (Peripheral blood T cells; Roc-A with Etoposide, FIG. 1a, FIG. 7): protects T cells from Etoposide-induced apoptotic cell death in a dose- and time-dependent manner; also recorded: reduces Etoposide-induced apoptosis in T cells
Protection against Etoposide-induced cell death [1]: did neither protect
Change in cell death on increased Etoposide doses with Roc-A (non-malignant cells): only resulted in increased cell death in malignant cells
Effect on Etoposide-induced γ-H2AX foci formation (γ-H2AX): does not prevent Etoposide-induced increase in γ-H2AX; also recorded: did not block Etoposide-induced γ-H2AX foci formation
Radioprotective effect by time of Roc-A addition (Primary human T cells; Roc-A 1 h before radiation (10 Gy) (FIG. 1d)): highest
Radioprotective effect (percent of protection from IR-induced apoptosis) (Primary human T cells; Roc-A 4 h after radiation (10 Gy) (FIG. 1d)): higher than 50%
Ionizing radiation-induced apoptosis in T cells (Primary human T cells; increasing doses of IR, different concentrations of Roc-A, 24 h (FIG. 1e)): reduced ionizing radiation-induced apoptosis in T cells
Protection against Etoposide-induced cell death [2]: abolished; also recorded: not statistically significant
